Calls of active or inactive are those of the source. Bounds are passed on as bounds.

The record followed here is ChEMBL document CHEMBL1201862, “PubChem BioAssay data set” (2004).

Test [1] deals with T1, E3 ubiquitin-protein ligase XIAP (Homo sapiens, UniProt P98170). Kind of test: Counter Screen using XIAP-Bir3 for Chemical Antagonists of Bir1/2 domains of IAP-family anti-apoptotic proteins. [Related pubchem assays (depositor defined):AID1018, AID1449, AID1514, AID1638, AID1749, AID1750, AID488957, AID488963].
T1 sequence (P98170 whole entry): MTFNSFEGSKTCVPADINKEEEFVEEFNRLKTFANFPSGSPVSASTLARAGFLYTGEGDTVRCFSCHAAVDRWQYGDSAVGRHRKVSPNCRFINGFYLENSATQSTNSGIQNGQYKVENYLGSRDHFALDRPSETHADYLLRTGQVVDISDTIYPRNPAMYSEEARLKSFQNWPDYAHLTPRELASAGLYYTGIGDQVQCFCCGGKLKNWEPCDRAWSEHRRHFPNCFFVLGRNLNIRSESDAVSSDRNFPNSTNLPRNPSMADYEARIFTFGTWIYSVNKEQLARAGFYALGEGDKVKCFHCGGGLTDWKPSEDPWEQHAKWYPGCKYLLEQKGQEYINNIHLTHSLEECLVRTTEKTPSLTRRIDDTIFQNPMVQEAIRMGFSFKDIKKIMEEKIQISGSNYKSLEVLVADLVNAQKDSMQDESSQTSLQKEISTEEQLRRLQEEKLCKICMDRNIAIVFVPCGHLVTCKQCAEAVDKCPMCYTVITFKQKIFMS
In test [2] the target is T1, E3 ubiquitin-protein ligase XIAP. Description: XIAP antagonists, biochemical, IAP family, fluorescence polarization (AID 1018). Type of test: functional. Background: Polarisation of emitted light reports the rotation of a fluorescent probe.
The test system of test [3] is P388/ADR. Description: cells. Type of test: functional. Particulars: Mus musculus.
The subject of test [4] is P388. Kind of test: cells. As to conditions: Mus musculus. The class given is functional.
The subject of test [5] is SN12K1. Kind of test: cells. The class given is functional. Particulars: Homo sapiens.
Test [6] concerns the target T2, Rac GTPase-activating protein 1 (Homo sapiens, UniProt Q9H0H5).
T2 sequence (Q9H0H5 whole entry): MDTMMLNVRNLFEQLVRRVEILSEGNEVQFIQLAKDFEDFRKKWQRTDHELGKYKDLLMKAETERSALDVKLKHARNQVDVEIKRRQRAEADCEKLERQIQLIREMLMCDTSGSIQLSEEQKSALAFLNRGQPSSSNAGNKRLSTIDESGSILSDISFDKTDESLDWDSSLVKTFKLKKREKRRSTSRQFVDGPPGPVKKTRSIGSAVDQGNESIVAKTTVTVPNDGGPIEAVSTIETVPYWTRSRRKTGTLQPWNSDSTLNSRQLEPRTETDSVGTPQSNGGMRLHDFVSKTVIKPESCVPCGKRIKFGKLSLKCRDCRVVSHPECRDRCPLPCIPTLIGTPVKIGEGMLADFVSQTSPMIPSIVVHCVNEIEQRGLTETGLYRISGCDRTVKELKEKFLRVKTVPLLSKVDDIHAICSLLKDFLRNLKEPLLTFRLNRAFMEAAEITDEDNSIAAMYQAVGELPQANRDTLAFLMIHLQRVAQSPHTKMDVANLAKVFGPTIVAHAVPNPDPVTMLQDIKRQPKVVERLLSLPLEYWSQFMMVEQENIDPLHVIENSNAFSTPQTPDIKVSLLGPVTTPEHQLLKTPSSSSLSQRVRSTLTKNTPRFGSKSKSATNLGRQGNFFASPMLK
Description: MgcRacGAP GTPase-activating activity inhibitors, confirmation, biochemical, ADP Hunter fluorescence, primary and confirmatory (AID 624330). Type of test: functional.

Test [7] concerns the target Nonstructural protein 1 (Influenza A virus, UniProt Q194T2). Type of test: functional, Influenza A virus (A/California/07/2009(H1N1)).
Test [8] can be described thus: inhibitors of HIV Env-driven cell fusion, dose response, cherry-pick (AID 652057). Type of test: functional, cell-based.
Test [9] relates to HEK293. Kind of test: inhibitors of LMP1-driven NF-kB reporter, dose response, cell-based, HEK293, luciferase, cherry-pick (AID 588343). Particulars: Homo sapiens. The class given is functional.
Test [10] is described as follows: inhibitors of clade B AD8 Env fusion, dose response, cell-based, cherry-pick (AID 652062).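 Also: luciferase signal from cell-cell fusion driven by HIV-1 clade B AD8 Env; potency is for inhibitors of fusion seen as a drop in luminescence.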 The class given is functional.
Test [11] is described as follows: CEM21 lymphoblast cell cytotoxicity, dose response, cytotoxicity control for viral fusion inhibitor project, CellTiter-Glo luminescence, cherry-picked (AID 652042).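 Also: potency for signal decrease meaning cytotoxicity.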 The class given is functional, cell-based. For orientation: Cellular ATP, detected with luciferase, serves as a proxy for viable cell number.
In test [12] the test system is HEK293. Kind of test: cells. Type of test: functional, cell-based. Particulars: Homo sapiens.
Test [13] has as its system HEK293. Description: cells. Type of test: functional, cell-based. As to conditions: Homo sapiens. This is another data set of the same source.
For test [14], the system named is HEK293. Kind of test: NOD1 signaling inhibitors, primary screen, cell-based, luminescence, uHTS (AID 1578). Type of test: functional. As to conditions: Homo sapiens.
Test [15] relates to HEK293. Kind of test: NOD2 signaling inhibitors in MDP-stimulated cells, cell-based, uHTS, luminescence (AID 2001). As to conditions: Homo sapiens. The class given is functional.
The nature of test [16]: cytotoxicity toward DRD oncogenic fibroblasts, dose response, cell-based, non-viral oncogenic, luminescence (AID 1934). Type of test: functional. Particulars: Homo sapiens.
Test [17] is described as follows: cells. The class given is functional, cell-based.
Test [18] in a line: cytotoxicity in HEK-293T cells, dose response, cytotoxicity control for TCR NF-kB inhibitor project, luminescence, T-cell screen hits (AID 489026).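 Also: cells exposed to compound about 14 hours before the viability readout.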 The class given is functional, cell-based.
The nature of test [19]: inhibitors of SNCA 5'UTR-driven translation, confirmation, luminescence, H4 neuroglioblastoma cells, dose confirmation (AID 2454).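 Also: H4 neuroglioblastoma cells carrying an alpha-synuclein 5'UTR luciferase reporter; potency for inhibition of the luciferase signal.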 Type of test: functional, cell-based.
Test [20] can be described thus: Luminescence Cell-Based Dose Response HTS to Identify Inhibitors of 5'UTR Stem-Loop Driven Prion Protein mRNA Translation in H4 Neuroglioblastoma Cells. [Related pubchem assays: 1827 (Project Summary), 1813 (Primary HTS)]. Type of test: functional.
The test system of test [21] is BJ. Description: cytotoxicity toward BJ-TERT-LT-ST fibroblasts, dose response, cell-based, RAS-independent, luminescence (AID 1935).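 Also: BJ fibroblasts immortalized with TERT plus LT and ST oncogenes.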 The class given is functional. Particulars: Homo sapiens.
Test [22] has as its system BJ. Description: cytotoxicity toward BJ-TERT fibroblasts, dose response, cell-based, RAS-independent, luminescence (AID 1933). As to conditions: Homo sapiens. The class given is functional.
Test [23] has as its system BJ. Kind of test: cells. Particulars: Homo sapiens. Type of test: functional, cell-based.
The nature of test [24]: inhibitors of firefly luciferase expression or activity, dose response, H4 neuroglioma cells, luminescence (AID 1990). The class given is functional, cell-based.
Test [25] in a line: inhibitors of SNCA 5'UTR-driven reporter translation, confirmation, H4 neuroglioma cells, luminescence (AID 1988). Type of test: functional, cell-based.
Test [26] is described as follows: luciferase reporter signal reduction – luminescence, H4-C neuroglioblastoma cells, dose response (AID 2458).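 Also: H4 neuroglioblastoma cells stably carrying a luciferase reporter gene fusion.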 Type of test: functional, cell-based.
The target in test [27] is T3, Carboxy-terminal domain RNA polymerase II polypeptide A small phosphatase 1 (Homo sapiens, UniProt Q9GZU7).
T3 sequence (Q9GZU7 whole entry): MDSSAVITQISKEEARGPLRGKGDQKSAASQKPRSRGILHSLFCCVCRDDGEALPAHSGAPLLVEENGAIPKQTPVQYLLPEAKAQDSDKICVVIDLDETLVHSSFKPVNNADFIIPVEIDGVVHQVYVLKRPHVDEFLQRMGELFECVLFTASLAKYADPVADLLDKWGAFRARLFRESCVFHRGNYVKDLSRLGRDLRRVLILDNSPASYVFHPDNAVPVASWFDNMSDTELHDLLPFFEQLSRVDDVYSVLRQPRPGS
Kind of test: inhibitors of CTDSP1, concentration-response testing, biochemical assay, absorbance-based, actives from ultra-high-throughput screening (AID 540297). Type of test: functional.

Test [28] relates to H9c2. Description: cells. Type of test: functional, cell-based. Particulars: Rattus norvegicus, H9c2, Myocardium.
Test [29] concerns the target T4, Estrogen receptor (Homo sapiens, UniProt P03372).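 Also: potency for inhibiting coactivator peptide recruitment to the receptor.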
T4 sequence (P03372 whole entry): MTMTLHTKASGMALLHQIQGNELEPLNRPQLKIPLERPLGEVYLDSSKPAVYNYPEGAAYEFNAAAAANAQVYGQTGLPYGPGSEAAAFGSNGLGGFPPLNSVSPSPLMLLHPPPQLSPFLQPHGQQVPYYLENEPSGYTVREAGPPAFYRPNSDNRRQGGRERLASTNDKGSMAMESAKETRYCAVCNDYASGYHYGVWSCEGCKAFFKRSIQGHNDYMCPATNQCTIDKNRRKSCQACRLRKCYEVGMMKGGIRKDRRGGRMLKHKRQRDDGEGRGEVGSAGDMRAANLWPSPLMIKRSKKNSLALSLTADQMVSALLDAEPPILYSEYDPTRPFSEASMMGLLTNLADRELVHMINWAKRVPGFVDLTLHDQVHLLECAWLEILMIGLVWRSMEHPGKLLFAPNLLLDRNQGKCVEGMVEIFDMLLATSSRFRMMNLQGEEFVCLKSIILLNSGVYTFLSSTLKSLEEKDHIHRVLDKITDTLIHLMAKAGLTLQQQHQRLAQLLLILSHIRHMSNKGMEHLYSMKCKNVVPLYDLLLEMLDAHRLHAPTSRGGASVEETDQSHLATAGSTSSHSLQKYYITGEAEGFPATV

In test [30] the target is Glyceraldehyde-3-phosphate dehydrogenase (Homo sapiens, UniProt P04406).
Glyceraldehyde-3-phosphate dehydrogenase, sequence (P04406 whole entry): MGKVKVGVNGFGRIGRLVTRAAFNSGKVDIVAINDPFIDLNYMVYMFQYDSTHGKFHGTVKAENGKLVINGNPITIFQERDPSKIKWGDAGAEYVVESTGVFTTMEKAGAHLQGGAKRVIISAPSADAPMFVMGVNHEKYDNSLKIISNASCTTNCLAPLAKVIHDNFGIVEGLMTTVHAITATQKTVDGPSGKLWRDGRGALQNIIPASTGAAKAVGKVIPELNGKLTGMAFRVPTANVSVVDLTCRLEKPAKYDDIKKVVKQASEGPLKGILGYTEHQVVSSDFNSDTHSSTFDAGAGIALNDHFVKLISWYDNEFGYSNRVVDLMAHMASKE

Nonstructural protein 1, sequence (Q194T2 whole entry, the tested form may be a part): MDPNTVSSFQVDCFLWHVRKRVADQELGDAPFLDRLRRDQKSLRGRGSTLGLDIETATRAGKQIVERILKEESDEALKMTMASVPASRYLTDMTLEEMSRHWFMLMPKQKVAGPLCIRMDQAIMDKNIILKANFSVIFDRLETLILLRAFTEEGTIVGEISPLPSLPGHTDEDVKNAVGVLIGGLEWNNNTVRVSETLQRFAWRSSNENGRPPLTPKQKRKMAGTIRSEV

As to `O=C(Nc1ccccc1-c1nnn(CC(=O)N2CCCc3ccccc32)n1)c1ccc(Cl)cc1`, the IC50 – broadly, the concentration needed to halve the response being measured – in test [1] was > 100 µM (inactive); in test [2], > 100 µM (not active).

`NCC(Cl)C(O)c1c[nH]c(N)n1` (configuration not stated): the values for the GI50 in test [3], in test [4] and in [5] were 0.232 µM (active), 0.0353 µM (active) and 0.507 µM (active), respectively.

Consider `CC(C)=CC(=O)OC1C2C(C)=CC(=O)C(O)C2(C)C2C3(O)OCC24C(CC(=O)OC14)C(C)C3O` (configuration not stated), for which the GI50 – broadly, the concentration giving 50% growth inhibition – in [3] was 0.102 µM (active); in test [4], 0.000946 µM (active); in test [5], 0.02 µM (active).

`Oc1ccc(C=NNc2ccccn2)c(O)c1`: the figures for the IC50 in test [6] and in [7] were 27 µM (active) and 2.71 µM (active), respectively. Further, the AC50 (as a rule, the concentration giving half of the maximal activity seen) was 8.53 µM (active) in [8], 10.4 µM (active) in test [9], 5.5 µM (active) in [10] and 8.15 µM (active) in test [11].

Turning to `COc1ccc(NS(=O)(=O)c2ccc3oc(SC(C)C(N)=O)nc3c2)cc1` (configuration not stated), the IC50 in test [12] was > 20 µM (inactive); in test [13] it was > 20 µM (inactive); in test [15], 20 µM (inactive). In addition, the EC50 (commonly the concentration at which the effect is half-maximal) in test [14] was 6.14 µM (active).

As for `C=CCOC(=O)c1[nH]c2c(c1C)C(=O)CC(c1ccco1)C2` (configuration not stated), the EC50 was 0.374 µM (active) in test [16]; 1.29 µM (active) in test [17]; 0.822 µM (active) in [19]; 0.19 µM (active) in test [20]; 0.346 µM (inconclusive) in [21]; 0.377 µM (inconclusive) in test [22]. The EC50 in test [23] is 29.1 µM (inconclusive); in [24], 0.257 µM (active); in [25], < 0.1 µM (active); in test [26] it was 0.598 µM (active). For the same compound, in [18], the IC50 is > 80 µM (inactive).

Turning to `C/C(CC(=O)NC1CCCCC1)=N\NC(=O)Cc1ccc(-c2ccccc2)cc1`, the IC50 in test [27] is 7.87 µM (active).

`Cc1cc(-c2nn3c(-c4ccccc4)nnc3s2)c2ccccc2n1`: the IC50 was > 100 µM (inactive) in test [1], > 100 µM (not active) in test [2], > 79 µM (inactive) in test [28] and 21.6 µM (active) in test [29].

As to `O=C(c1cc(-c2cc(F)c(Cl)cc2Cl)n[nH]1)N(CCO)CCO`, the IC50 in test [30] was > 10 µM (inconclusive).

As for `CC1CCCN(C(C(=O)Nc2ccc(C(C)C)cc2)c2ccc3c(c2)OCO3)C1` (configuration not stated), the IC50 in test [1] was > 100 µM (inactive); in [2], > 100 µM (not active).
